system: HBV; assay: HBV infection in HepG2-NTCP cells (HBeAg AlphaLISA in supernatants); assay type: cell-based; settings: Hepatitis B virus, 192 h; HBV infection of HepG2-NTCP cells; HBeAg in supernatants at day 8 post infection; read-out: Cellular EC50
Method in brief: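 HepG2-NTCP A3 cells were pre-incubated 2 h with 3-fold serially diluted compounds, then infected with HBV at 2000 GE/cell with 4% PEG (0.5% DMSO final). After washing on day 1, cells stayed in 2.5% DMSO medium; supernatant HBeAg measured by AlphaLISA on day 8, EC50 versus DMSO controls.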

EC50, 100 to 1000 nM:
Cc1ccc(F)cc1Oc1cc2c(cc1-c1ccc(F)c(C(=O)O)c1)S(=O)(=O)N(C)[C@H](C1CCCCC1)CN2c1ccccc1 [Example 413]
CN1[C@H](C2CCCCC2)CN(c2ccccc2)c2cc(C3CCOCC3)c(-c3ccc(F)c(C(=O)O)c3)cc2S1(=O)=O [Example 591]
CO[C@H]1C[C@@H](N2C[C@@H](CC(C)C)N(C)S(=O)(=O)c3cc(-c4ccc(F)c(C(=O)O)c4)c(Oc4ccccc4F)cc32)C1 [Example 473]
CN1[C@H](COC(C)(C)C)CN(c2ccccc2)c2cc(Cl)c(-c3ccc(F)c(C(=O)O)c3)cc2S1(=O)=O [Example 101, (S)-5-(3-(tert-butoxymethyl)-7-chloro-2-methyl-1,1-dioxido-5-phenyl-2,3,4,5-tetrahydrobenzo[f][1,2,5]thiadiazepin-8-yl)-2-fluorobenzoic acid]
CC(C)C[C@@H]1CN(CC(C)C)c2cc(Oc3ccc(F)cc3)c(-c3ccc(F)c(C(=O)O)c3)cc2S(=O)(=O)N1C [Example 475, (R)-2-fluoro-5-(7-(4-fluorophenoxy)-3,5-diisobutyl-2-methyl-1,1-dioxido-2,3,4,5-tetrahydrobenzo[f][1,2,5]thiadiazepin-8-yl)benzoic acid]
CC(C)C[C@@H]1CN(c2ccccc2)c2cc(Oc3ccc(Cl)c(C(F)(F)F)c3)c(-c3ccc(F)c(C(=O)O)c3)cc2S(=O)(=O)N1C [Example 434]
CC(=O)N1CCN(c2cc3c(cc2-c2ccc(F)c(C(=O)O)c2)S(=O)(=O)N(C)[C@H](C2CCCCC2)CN3c2ccccc2)CC1 [Example 535]
CC(C)CC1CN(c2ccccc2)c2cc(Cl)c(-c3cc(C(=O)O)n(C)n3)cc2S(=O)(=O)N1C (stereo not shown) [Example 39]
CC(C)C[C@@H]1CN(C2CC3(CCC3)C2)c2cc(Oc3ccccc3F)c(-c3ccc(F)c(C(=O)O)c3)cc2S(=O)(=O)N1C [Example 467]
CN1[C@H](C2CCCCC2)CN(c2ccccc2)c2cc(Cl)c(-c3ccc(C(=O)O)c(C(=O)O)c3)cc2S1(=O)=O [Example 213, (R)-4-(7-chloro-3-cyclohexyl-2-methyl-1,1-dioxido-5-phenyl-2,3,4,5-tetrahydrobenzo[f][1,2,5]thiadiazepin-8-yl)phthalic acid]
CCCCCCN1C[C@@H](C2CCCCC2)N(C)S(=O)(=O)c2cc(-c3ccc(F)c(C(=O)O)c3)c(Cl)cc21 [Example 324]
CCCC[C@@H]1CN(c2ccccc2)c2cc(Oc3ccc(F)cc3)c(-c3ccc(F)c(C(=O)O)c3)cc2S(=O)(=O)N1C [Example 421]
O=C(O)c1cccc(-c2cc3c(cc2F)N(c2ccccc2)C[C@H]2C[C@@H](C(F)(F)F)CN2S3(=O)=O)c1 [Example 9]
CC(C)C[C@@H]1CN(c2ccccc2)c2cc(Cl)c(-c3ccc(C(F)F)c(C(=O)O)c3)cc2S(=O)(=O)N1C [Example 165]
CC(C)C[C@@H]1CN(c2ccccc2)c2cc(Cl)c(-c3cccc(S(=O)(=O)O)c3)cc2S(=O)(=O)N1C [Example 230]
CN1C(C23CC(C(F)(F)F)(C2)C3)CN(c2ccccc2)c2cc(Cl)c(-c3ccc(F)c(C(=O)O)c3)cc2S1(=O)=O (stereo not shown) [Example 87]
CN1[C@H](C2CCCCC2)CN(c2ccccc2)c2cc(O[C@H]3C[C@H](C#N)C3)c(-c3ccc(F)c(C(=O)O)c3)cc2S1(=O)=O [Example 384]
COC1CCN(c2cc3c(cc2-c2ccc(F)c(C(=O)O)c2)S(=O)(=O)N(C)[C@H](C2CCCCC2)CN3c2ccccc2)CC1 [Example 534]
CN1[C@H](C2CCC2)CN(c2ccccc2)c2cc(Cl)c(-c3ccc(O)c(C(=O)O)c3)cc2S1(=O)=O [Example 159]
CC(C)CC1CN(C2CCC2)c2cc(Cl)c(-c3cccc(C(=O)O)c3)cc2S(=O)(=O)N1C (stereo not shown) [Example 328]
CN1[C@H](C2CCCCC2)CN(c2ccccc2)c2cc(Cl)c(-c3cc(C(=O)O)cs3)cc2S1(=O)=O [Example 129, (R)-5-(7-chloro-3-cyclohexyl-2-methyl-1,1-dioxido-5-phenyl-2,3,4,5-tetrahydrobenzo[f][1,2,5]thiadiazepin-8-yl)thiophene-3-carboxylic acid]

EC50, < 100 nM:
CC(C)C[C@@H]1CN(c2ccccc2)c2cc(Cl)c(-c3ccc(O)c(C(=O)O)c3)cc2S(=O)(=O)N1C [Example 160, (R)-5-(7-chloro-3-isobutyl-2-methyl-1,1-dioxido-5-phenyl-2,3,4,5-tetrahydrobenzo[f][1,2,5]thiadiazepin-8-yl)-2-hydroxybenzoic acid]
CN1[C@H](C2CCCCC2)CN(c2ccccc2)c2cc(Cl)c(-c3cc(NC(=O)OCC(C)(F)F)c(C(=O)O)s3)cc2S1(=O)=O [Example 244]
CN1[C@H](C2CCC2)CN(c2ccccc2)c2cc(Cl)c(-c3ccc([N+](=O)[O-])c(C(=O)O)c3)cc2S1(=O)=O [Example 203]
CN1[C@H](C2CCCCC2)CN(c2cccc(C#N)c2)c2cc(Cl)c(-c3ccc(F)c(C(=O)O)c3)cc2S1(=O)=O [Example 291]
CCCCCNc1cc2c(cc1-c1ccc(F)c(C(=O)O)c1)S(=O)(=O)N(C)[C@H](C1CCCCC1)CN2c1ccccc1 [Example 528]
CC(C)CCCCOc1cc2c(cc1-c1ccc(F)c(C(=O)O)c1)S(=O)(=O)N(C)[C@H](C1CCCCC1)CN2c1ccccc1 [Example 361]
CC(C)C[C@@H]1CN(c2ccccc2)c2cc(N3CCCCC3)c(-c3ccc(Cl)c(C(=O)O)c3)cc2S(=O)(=O)N1C [Example 552]
CN1[C@H](C2CCCCC2)CN(c2ccccc2)c2cc(Cl)c(-c3cc(NC(=O)OCC(C)(C)C#N)c(C(=O)O)s3)cc2S1(=O)=O [Example 256]
CO[C@@H]1CCN(c2cc3c(cc2-c2ccc(F)c(C(=O)O)c2)S(=O)(=O)N(C)[C@H](C2CCCCC2)CN3c2ccccc2)C1 [Example 531]
CN1[C@H](CC(C)(C)C)CN(c2ccccc2)c2cc(Cl)c(-c3ccc(Cl)c(C(=O)O)c3)cc2S1(=O)=O [Example 51]
Cc1c(F)cccc1Oc1cc2c(cc1-c1ccc(F)c(C(=O)O)c1)S(=O)(=O)N(C)[C@H](C1CCCCC1)CN2c1ccccc1 [Example 410]
CN1[C@H](C2CCC2)CN(c2ccccc2)c2cc(Cl)c(-c3ccc(C(F)(F)F)c(C(=O)O)c3)cc2S1(=O)=O [Example 204]
CN1[C@H](C2CCCCC2)CN(c2ccccc2)c2cc(OCC(F)(F)F)c(-c3ccc(NC(=O)OCc4ccccc4)c(C(=O)O)c3)cc2S1(=O)=O [Example 480]
CN1[C@H](C2CCCCC2)CN(c2ccc(C(F)(F)F)cc2)c2cc(Cl)c(-c3ccc(F)c(C(=O)O)c3)cc2S1(=O)=O [Example 300]
Cc1cc(-c2cc3c(cc2Cl)N(c2ccccc2)C[C@@H](C2CCCCC2)N(C)S3(=O)=O)oc1C(=O)O [Example 124]
CC(C)C[C@@H]1CN(c2ccccc2)c2cc(Cl)c(-c3ccc(Cl)c(C(=O)O)c3)cc2S(=O)(=O)N1C [Example 60]
CN1[C@H](C2CCCCC2)CN(c2ccccc2)c2cc(OC3CCCCC3)c(-c3ccc(F)c(C(=O)O)c3)cc2S1(=O)=O [Example 374]
CN1[C@H](C2CCCCC2)CN(c2ccccc2)c2cc(OCc3ccc(OC(F)(F)F)cc3)c(-c3cc(F)c(C(=O)O)s3)cc2S1(=O)=O [Example 507]
CN1[C@H](C2CCCCC2)CN(c2ccccc2)c2cc(Cl)c(-c3ccc(NS(=O)(=O)CCC(F)(F)F)c(C(=O)O)c3)cc2S1(=O)=O [Example 268]
CO[C@H]1CCN(c2cc3c(cc2-c2ccc(F)c(C(=O)O)c2)S(=O)(=O)N(C)[C@H](C2CCCCC2)CN3c2ccccc2)C1 [Example 532]
CC(C)C[C@@H]1CN(c2ccccc2)c2cc(Cl)c(-c3ccc(F)c(C(=O)O)c3)cc2S(=O)(=O)N1C [Example 59, (R)-5-(7-chloro-3-isobutyl-2-methyl-1,1-dioxido-5-phenyl-2,3,4,5-tetrahydrobenzo[f][1,2,5]thiadiazepin-8-yl)-2-fluorobenzoic acid]
CC(C)C[C@@H]1CN(c2ccccc2)c2cc(Oc3ccccc3Cl)c(-c3ccc(F)c(C(=O)O)c3)cc2S(=O)(=O)N1C [Example 431]
CN1[C@H](C2CCCCC2)CN(c2cccc(OC(F)(F)F)c2)c2cc(Cl)c(-c3ccc(F)c(C(=O)O)c3)cc2S1(=O)=O [Example 293]

EC50, > 1000 nM:
CN1[C@H](CN2CCCCC2)CN(c2ccccc2)c2cc(Cl)c(-c3ccc(F)c(C(=O)O)c3)cc2S1(=O)=O [Example 108, (R)-5-(7-chloro-2-methyl-1,1-dioxido-5-phenyl-3-(piperidin-1-ylmethyl)-2,3,4,5-tetrahydrobenzo[f][1,2,5]thiadiazepin-8-yl)-2-fluorobenzoic acid]
CN1[C@@H](Cc2ccc(Cl)cc2)CN(c2ccccc2)c2cc(C#N)c(-c3cccc(C(=O)O)c3)cc2S1(=O)=O [Example 13]
CN1[C@@H](CC2CCCCC2)CN(c2ccccc2)c2cc(Cl)c(-c3cccc(C(=O)O)c3)cc2S1(=O)=O [Example 43]
CN1[C@H](CN2CCCC(F)(F)C2)CN(c2ccccc2)c2cc(Cl)c(-c3ccc(F)c(C(=O)O)c3)cc2S1(=O)=O [Example 112]
CN1[C@@H](CC2CC2)CN(c2ccccc2)c2cc(Cl)c(-c3ccc(F)c(C(=O)O)c3)cc2S1(=O)=O [Example 42]
CN1[C@H](C2CCCCC2)CN(c2ccccc2)c2cc(Oc3ccncc3)c(-c3ccc(F)c(C(=O)O)c3)cc2S1(=O)=O [Example 416]
CN1[C@H](CN2CCC(F)(F)C2)CN(c2ccccc2)c2cc(Cl)c(-c3ccc(F)c(C(=O)O)c3)cc2S1(=O)=O [Example 111]
CC(C)C[C@@H]1CN(c2ccccc2)c2cc(OC3CCN(C)CC3)c(-c3ccc(F)c(C(=O)O)c3)cc2S(=O)(=O)N1C [Example 448]
